The values that follow come from paper PMC12396291, “DNA-encoded library screening uncovers potent DNMT2 inhibitors targeting a cryptic allosteric binding site” (iScience, 2025).

Entries after “also recorded” stand apart in the source; their conditions may differ.

For one data set, the target named is T1, DNMT2 (Homo sapiens, UniProt O14717).
T1 construct: Recombinant human DNMT2 (full-length); His-tag; made in house; host or cells: E. coli
T1 sequence (O14717 1-391): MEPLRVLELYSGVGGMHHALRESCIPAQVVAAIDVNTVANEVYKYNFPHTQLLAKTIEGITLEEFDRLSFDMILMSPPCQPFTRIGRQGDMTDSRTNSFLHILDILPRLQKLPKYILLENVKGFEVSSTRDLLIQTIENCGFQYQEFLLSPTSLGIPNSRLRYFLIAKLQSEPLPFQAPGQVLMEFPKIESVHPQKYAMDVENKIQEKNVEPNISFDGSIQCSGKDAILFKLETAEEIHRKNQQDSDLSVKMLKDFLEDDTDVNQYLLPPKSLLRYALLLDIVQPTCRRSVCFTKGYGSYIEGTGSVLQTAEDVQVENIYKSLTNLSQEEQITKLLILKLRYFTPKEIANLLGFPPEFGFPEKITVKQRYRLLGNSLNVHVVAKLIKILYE
In words: MST displacement assay with fluorescent FTAD probe. The class given is binding. Also on record: Fnorm (MST screening): unit not given here. The note with it: ligand 100 μM, FTAD probe. The method, then:
Screening for ligand binding and evaluation of dose-response affinity profiles was performed via microscale thermophoresis (MST) as described previously.[42] The measurements were conducted with a Nanotemper Technologies Monolith NT.115 device. All samples were measured in Monolith standard capillaries at 25 °C. The acquisition mode was set to “Nano-Blue” with an excitation power of 30% and a medium MST power, while the system was controlled using the software MO.Control (version 1.6.1) and for evaluation MO.Affinity Analysis (version 2.3) was used. The samples contained 2 μM DNMT2, 100 nM FTAD (5-FAM-triazolyl-adenosyl-Dab) probe, and 1.3% DMSO in MST buffer (50 mM HEPES, 150 mM NaCl, 1 mM dithiothreitol (DTT), 0.1% PEG-8000, 0.05% polysorbate-20, pH 7.4).[42] All compounds were employed at a final concentration of 100 μM for the initial ligand screening.

The nature of data set [1]: Parallel artificial membrane permeation assay (PAMPA). The class given is in vitro ADME. Particulars: 7 h incubation, duplicates. The method, then: To determine the passive permeability of selected DNMT2 ligands, a parallel artificial membrane permeation assay (PAMPA) was performed as described previously.[68] The experiment was performed in duplicates with Sigma-Aldrich MAIPNTR10 donor plates with 5 μL of an artificial membrane (1% w/v L-α-phosphatidylcholine in n-dodecane) per well. After incubation for 7 h, the acceptor solutions were evaluated by LC/MS (HP Agilent 1100 Series). The peak areas in the UV chromatogram (λ = 210 nm) were used to calculate the areas under the curve (AUCs).

Regarding `CCc1ccc(C(=O)NCC2(C(=O)N[C@@H](CC(=O)NCC(N)=O)Cc3ccc(I)cc3)CC2)cc1` [Compound 33], at DNMT2, the “Fnorm (% displ.): FTAD displacement” value is 18% and the “Fnorm (MST screening)” value is on record as 885.6.
For the molecule `CCc1ccc(C(=O)NCC2(C(=O)N[C@@H](CC(=O)NCC(N)=O)Cc3c[nH]c4ccccc34)CC2)cc1` [Compound 10], at DNMT2, the “Fnorm (% displ.): FTAD displacement” value is 40% and the “Fnorm (MST screening)” value turned out to be 903.3. The “Papp (PAMPA)” value in data set [1] is given as “failed to pass through the artificial membrane; also recorded: below detection limit”.
As for `Cc1ccc(C(=O)NCC2(C(=O)N[C@@H](CC(=O)NCC(N)=O)Cc3ccccc3)CC2)cc1` [Compound 11], on DNMT2, the “Fnorm (% displ.): FTAD displacement” value was 24% and the “Fnorm (MST screening)” value was 891.2.
In the case of `CCc1ccc(C(=O)NCC2(C(=O)N[C@@H](CC(=O)NCC(=O)O)Cc3ccccc3)CC2)cc1` [Compound 54], the “Papp (PAMPA)” value in data set [1] is on record as “failed to pass through the artificial membrane; also recorded: below detection limit”.
As for `NC(=O)CNC(=O)C[C@@H](Cc1ccccc1)NC(=O)C1(CNC(=O)c2ccc(C3(C(F)(F)F)N=N3)cc2)CC1` [Compound 20], at DNMT2, the “Fnorm (% displ.): FTAD displacement” value is recorded as 11% and the “Fnorm (MST screening)” value was determined as 876.5.
In the case of `CCc1ccc(C(=O)NCC2(C(=O)N[C@@H](CC(=O)N[C@@H](C(N)=O)[C@@H](C)O)Cc3c[nH]c4ccccc34)CC2)cc1` [Compound 41], on DNMT2, the “Fnorm (% displ.): FTAD displacement” value is listed as 6% and the “Fnorm (MST screening)” value turned out to be 865.3.
In the same order, the values of `CCc1ccc(C(=O)NCC2(C(=O)NCCC(=O)NCC(N)=O)CC2)cc1` [Compound 38] are 4% and 859.4.
In the case of `CCc1ccc(C(=O)NCC2(C(=O)N[C@@H](CC(=O)NCC(N)=O)Cc3csc4ccccc34)CC2)cc1` [Compound 32], on DNMT2, the “Fnorm (% displ.): FTAD displacement” value came to 3% and the “Fnorm (MST screening)” value was 856.7.
Take `CCc1ccc(C(=O)NCCC(=O)N[C@@H](CC(=O)NCC(N)=O)Cc2c[nH]c3ccccc23)cc1` [Compound 27]: on DNMT2, the “Fnorm (% displ.): FTAD displacement” value is 5% and the “Fnorm (MST screening)” value is 863.8.
For `CCc1ccc(C(=O)NCC2(C(=O)N[C@@H](CC(=O)NCC(N)=O)Cc3ccc(O)cc3)CC2)cc1` [Compound 15], at DNMT2, the “Fnorm (% displ.): FTAD displacement” value came to 5% and the “Fnorm (MST screening)” value is 862.9.
For `CCc1ccc(C(=O)NCC2(C(=O)N[C@H](CC(=O)NCC(N)=O)Cc3c[nH]c4ccccc34)CC2)cc1` [Compound 31], on DNMT2, the “Fnorm (% displ.): FTAD displacement” value was found to be 4% and the “Fnorm (MST screening)” value was 857.0.
With `CCc1ccc(C(=O)NCC2(C(=O)N3Cc4ccccc4C[C@@H]3CC(=O)NCC(N)=O)CC2)cc1` [Compound 35], on DNMT2, the “Fnorm (% displ.): FTAD displacement” value was 5% and the “Fnorm (MST screening)” value is reported as 861.5.
In the same order, the values of `CCc1ccc(C(=O)NC[C@H](C)C(=O)N[C@@H](CC(=O)NCC(N)=O)Cc2c[nH]c3ccccc23)cc1` [Compound 25] are 3% and 855.5.
In the same order, the values of `CCc1ccc(C(=O)NCC2(C(=O)N[C@@H](CC(=O)N(C)CC(N)=O)Cc3ccccc3)CC2)cc1` [Compound 46] are 7% and 868.4.
Regarding `CCc1ccc(C(=O)NC[C@H](N)C(=O)N[C@@H](CC(=O)NCC(N)=O)Cc2c[nH]c3ccccc23)cc1` [Compound 24], at DNMT2, the “Fnorm (% displ.): FTAD displacement” value was determined as 4% and the “Fnorm (MST screening)” value stood at 860.8.
For `CCc1ccc(C(=O)NCC2(C(=O)N(C)[C@@H](CC(=O)NCC(N)=O)Cc3ccccc3)CC2)cc1` [Compound 45] the same measures were 5% and 862.6.
Consider `CCc1ccc(C(=O)NCC2(C(=O)N[C@@H](CC(=O)NCC(=O)NCCOCCOCCOCCOC)Cc3ccccc3)CC2)cc1` [Compound 48], for which, at DNMT2, the “Fnorm (% displ.): FTAD displacement” value worked out at 27% and the “Fnorm (MST screening)” value is on record as 894.1.
For `NC(=O)CNC(=O)C[C@@H](Cc1ccccc1)NC(=O)C1(CNC(=O)C2CCCCC2)CC1` [Compound 22] the same measures were 5% and 864.4.
In the same order, the values of `CCCc1ccc(C(=O)NCC2(C(=O)N[C@@H](CC(=O)NCC(N)=O)Cc3ccccc3)CC2)cc1` [Compound 12] are 23% and 890.4.
With `CCc1ccc(C(=O)NCC2(C(=O)N[C@@H](CC(=O)NCC(N)=O)Cc3ccccc3)C[C@H]2C(F)(F)F)cc1` (stereo partly shown) [Compound 28], at DNMT2, the “Fnorm (% displ.): FTAD displacement” value worked out at 8% and the “Fnorm (MST screening)” value is given as 871.9.
For `CCc1ccc(C(=O)NCC2(C(=O)N[C@@H](CC(=O)N[C@@H](Cc3ccccc3)C(N)=O)Cc3ccccc3)CC2)cc1` [Compound 42] the same measures were 4% and 858.8.
For `CCc1ccc(C(=O)NCC2(C(=O)N[C@@H](CC(=O)N[C@@H](C)C(N)=O)Cc3ccccc3)CC2)cc1` [Compound 39] the same measures were 8% and 871.4.
In the same order, the values of `C#Cc1ccc(C(=O)NCC2(C(=O)N[C@@H](CC(=O)NCC(N)=O)Cc3ccccc3)CC2)cc1` [Compound 19] are 8% and 871.4.
For the molecule `CCc1ccc(C(=O)NCC2(C(=O)N[C@@H](CC(=O)NCC(N)=O)Cc3ccccc3)C[C@H]2S(C)(=O)=O)cc1` (stereo partly shown) [Compound 29], at DNMT2, the “Fnorm (% displ.): FTAD displacement” value is 9% and the “Fnorm (MST screening)” value worked out at 872.3.
For `CCc1ccc(C(=O)NCC2(C(=O)N[C@@H](CC(=O)N[C@H](C)C(N)=O)Cc3ccccc3)CC2)cc1` [Compound 40] the same measures were 8% and 870.1.
For `CCc1ccc(C(=O)N(C)CC2(C(=O)NC(CC(=O)NCC(N)=O)Cc3ccccc3)CC2)cc1` (stereo not shown) [Compound 44] the same measures were 7% and 869.7.
In the same order, the values of `COc1ccc(C(=O)NCC2(C(=O)N[C@@H](CC(=O)NCC(N)=O)Cc3ccccc3)CC2)cc1` [Compound 13] are 32% and 897.7.
As to `CCc1ccc(C(=O)NCC2(C(=O)N[C@@H](CC(=O)NCC(N)=O)Cc3ccccc3)CC2)cc1` [Compound 14], the “Papp (PAMPA)” value in data set [1] is reported as “failed to pass through the artificial membrane; also recorded: below detection limit”.
With `NC(=O)CNC(=O)C[C@@H](Cc1ccccc1)NC(=O)C1(CNC(=O)c2ccccc2)CC1` [Compound 18], at DNMT2, the “Fnorm (% displ.): FTAD displacement” value is reported as 7% and the “Fnorm (MST screening)” value was 868.2.
Regarding `CCc1ccc(C(=O)NCC2(C(=O)N[C@@H](CC(=O)NCC(=O)O)Cc3c[nH]c4ccccc34)CC2)cc1` [Compound 9], on DNMT2, the “Fnorm (% displ.): FTAD displacement” value is reported as 46% and the “Fnorm (MST screening)” value was 907.7.
For `CCc1ccc(C(=O)NCC2(C(=O)N[C@@H](CC(=O)NCCC(N)=O)Cc3ccccc3)CC2)cc1` [Compound 43], at DNMT2, the “Fnorm (% displ.): FTAD displacement” value was determined as 10% and the “Fnorm (MST screening)” value amounted to 874.7.
For `CCc1ccc(C(=O)NCC2(C(=O)N[C@@H](CC(=O)NCC(N)=O)Cc3ccc(Br)cc3)CC2)cc1` [Compound 17] the same measures were 71% and 924.6.
For `CC(=O)NCC1(C(=O)N[C@@H](CC(=O)NCC(N)=O)Cc2ccccc2)CC1` [Compound 23] the same measures were 5% and 864.4.
Take `CCc1ccc(C(=O)NCC2(C(=O)N[C@@H](CC(=O)NCC(N)=O)Cc3ccccc3)CC2)c(C)c1` [Compound 21]: on DNMT2, the “Fnorm (% displ.): FTAD displacement” value amounted to 5% and the “Fnorm (MST screening)” value worked out at 862.4.
In the same order, the values of `CCc1ccc(C(=O)NC2(C(=O)N[C@@H](CC(=O)NCC(N)=O)Cc3c[nH]c4ccccc34)CC2)cc1` [Compound 26] are 5% and 861.9.
In the same order, the values of `CCc1ccc(C(=O)NCC2(C(=O)N[C@@H](CC(=O)NCC(N)=O)Cc3ccc4ccccc4c3)CC2)cc1` [Compound 36] are 5% and 861.7.
For the molecule `CCc1ccc(C(=O)NCC2(C(=O)N[C@@H](CC(=O)NCC(N)=O)C(=O)O)CC2)cc1` [Compound 37], at DNMT2, the “Fnorm (% displ.): FTAD displacement” value is given as 4% and the “Fnorm (MST screening)” value was 858.6.
